Assay results taken from patent publication US20030059857A1, “G-protein coupled receptor and methods” (priority 2001, published 2003).

Legend:
Format in all cases: cell-based
SP174 receptor [1] = biological target: T1, SP174 receptor (Homo sapiens, UniProt Q9BPV8); assay: SP174 receptor ligand identification, Ca2+ FLIPR in transfected mammalian cells (description section); set-up: expressed in transfected cells; details: values given in the description; SP174 in pcDNA3.1 transfected into mammalian cells; read-out: EC50 for SP174 (agonists)
T1 sequence (Q9BPV8 1-333 isoform Q9BPV8-2): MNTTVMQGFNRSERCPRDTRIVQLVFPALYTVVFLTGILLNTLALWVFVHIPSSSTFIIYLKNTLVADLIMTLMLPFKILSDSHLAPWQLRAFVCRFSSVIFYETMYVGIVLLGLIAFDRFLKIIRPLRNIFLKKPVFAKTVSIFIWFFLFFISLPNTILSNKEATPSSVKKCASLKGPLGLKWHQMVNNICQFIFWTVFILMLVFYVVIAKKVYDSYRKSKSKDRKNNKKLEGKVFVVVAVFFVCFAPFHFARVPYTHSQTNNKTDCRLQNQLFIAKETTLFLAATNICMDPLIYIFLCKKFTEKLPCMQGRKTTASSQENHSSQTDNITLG
Method: (§1) In order to identify SP174 receptor ligands the SP174 open reading frame was subcloned into the pcDNA3.1 expression vector under the control of the CMV promoter and transfected into mammalian cells. After allowing two days for receptor expression, the transfected cells were seeded into 96 well plates, loaded with the Ca^2+ sensitive Fluo-3AM dye and challenged with various compounds. The peak increments in Ca^2+ evoked by the test compounds were measured using the Fluorometric Imaging Plate Reader (FLIPR) system.

SP174 receptor [2] = biological target: T1, SP174 receptor; assay: FLIPR assay, HEK293f cells transiently co-transfected with SP174 receptor and chimera G protein Gq/i3; set-up: expressed in transfected cells; host or cells: HEK293f cells (G-418-resistant HEK293), transient, lipofectamine; details: Example 1; for EC50: HEK293f cells co-transfected with SP174 and Gq/i3; for specific activity on SP174 transfected cells (FLIPR screen of ligand collection): versus vector/Gq/i3 negative control
Excerpt: SP174 receptor cDNA was subcloned into the pcDNA3.1 expression vector (Invitrogen) and transiently co-transfected with chimera G protein Gq/i3 into HEK293f cells using lipofectamine (Gibco-BRL). HEK293f cells are the HEK293 cells which are resistant to G-418. Chimera G protein Gq/i3 was constructed by replacing the C-terminus five amino acid residues of human Gqa with the five amino acid residue of human Gi3a (Conklin et al., Nature, 363, p274-276). pcDNA 3.1 vector DNA was also co-transfected with chimera G protein Gq/i3 as a negative control. The transfected cells were seeded into 96 well plates and incubated overnight at 37° C. in a tissue culture incubator. The growth medium was aspirated and replaced with […] of loading medium (DMEM containing 1% FBS, […]/10% pluronic acid and 2.5 mM Probenecid) and incubated for 1 hour at 37° C. The cells were subsequently washed 3 times with Hank's BSS buffer containing 20 mM HEPES, 2.5 mM Probenecid, and 0.1% BSA using the gentle setting in a Denley cell washer (Denley Instruments). The washed cells were placed in a Fluorometric Imaging Plate Reader (FLIPR) and changes in cellular fluorescence recorded after the addition of various dilutions of tissue extract fractions.
EC50 values for ADP, ADPβS, 2-MeS-ADP, 2-MeS-ATP, 2-Cl-ATP and IDP were […], respectively, and the order of potency was 2-MeS-ATP=2-MeS-ADP>ADP=ADPβS>IDP.
The SP174 receptor assay was similar as Example 1 a. The SP174 receptor cDNA was subcloned into the pcDNA3.1 expression vector (Invitrogen) and transiently co-transfected with Gq/i3 into HEK293f cells using lipofectamine (Gibco-BRL). pcDNA 3.1 vector DNA was also co-transfected with Gq/i3 as a negative control. A variety of nucleotides, RBI small moleculars, and in-house peptide collection were screened. Twelve compounds were identified to be the agonists of the SP174 receptor. Their fluorecence change with different amount of the compounds were detected, the data were processed using Prism software to obtain their EC50 value. Other agonists can be identified using similar approaches. To identify antagonists of the SP174 receptor, two-addition approach was adapted. First, the compounds to be screened were added to the SP174 receptor transfected cells, after 5 minutes 100 nM of ADP were added as second addition and the fluorescence changes were recorded. In this assay antagonists inhibit the fluorecence signal of ADP.

SP174 receptor [3] = biological target: T1, SP174 receptor; assay: cAMP assay (inhibition of adenylyl cyclase) in SP174 receptor cells; set-up: expressed in transfected cells
Method: as §1, with “system. The endogenous ligand of the SP174 receptor was purified from rat spinal cords using a series of chromatography steps and its structure was identified as being ADP by Mass spectroscopy. […] In addition to ADP, other agonists were also identified for SP174.” for “system.”
The SP174 receptor cDNA was stably transfected into HEK293f cells according standard procedures. The SP174 receptor stable cell line and wild type cell grown on 12-well plates were incubated for 2 hr with 200 μl of medium plus 5 μCi of [3H]adenine/ml. Then 50 μl of Hepes (250 mM, pH 7.5, 50 μM Forskolin, 200 μM IBMX) with the compound to be screened is added to the cells and incubated for 10 minutes at 37° C. Incubations were terminated by addition of 0.8 ml of 5% trichloroacetic acid. [^3H]cAMP was purified using Dowex and alumina chromatography as previously described (Harden et al., Mol. Pharmacol. 21:570-580, 1982).

SMILES | EC50 (SP174 receptor [1]) [nM] | EC50 (SP174 receptor [2]) [nM] | mode of activation of the SP174 receptor (SP174 receptor [3]) | specific activity on SP174 transfected cells (FLIPR screen of ligand collection) (SP174 receptor [2])
Nc1ncnc2c1ncn2[C@@H]1O[C@H](COP(=O)(O)OP(=O)(O)OP(=O)(O)O)[C@@H](O)[C@H]1O [ATP] | 0.32 | – | – | –
O=c1[nH]cnc2c1ncn2[C@@H]1O[C@H](COP(=O)(O)OP(=O)(O)O)[C@@H](O)[C@H]1O [IDP] | 200 | 196 | – | –
Nc1ncnc2c1ncn2[C@@H]1O[C@H](COP(=O)(O)OP(=O)(O)O)[C@@H](O)[C@H]1O [ADP] | 1.6 | 80 | inhibition of adenylyl cyclase | activate specifically
Nc1ncnc2c1ncn2[C@@H]1O[C@H](COP(=O)(O)OP(=O)(O)OP(=O)(O)OC[C@H]2O[C@@H](n3cnc4c(N)ncnc43)[C@H](O)[C@@H]2O)[C@@H](O)[C@H]1O [AP3A] | 8 | – | – | specifically active
Nc1ncnc2c1ncn2[C@@H]1O[C@H](COP(=O)(O)OP(=O)(O)OP(O)(O)=S)[C@@H](O)[C@H]1O [ATPγS] | 8 | – | – | –
CSc1nc(N)c2ncn([C@@H]3O[C@H](COP(=O)(O)OP(=O)(O)OP(=O)(O)O)[C@@H](O)[C@H]3O)c2n1 [2-MeS-ATP] | 8 | 97 | – | –
Nc1nc(Cl)nc2c1ncn2[C@@H]1O[C@H](COP(=O)(O)OP(=O)(O)OP(=O)(O)O)[C@@H](O)[C@H]1O [2-Cl-ATP] | 8 | 94 | – | –
Nc1nc(Cl)nc2c1ncn2[C@@H]1O[C@H](COP(=O)(O)OP(=O)(O)O)[C@@H](O)[C@H]1O [2-Cl-ADP] | – | – | – | specifically active
CSc1nc(N)c2ncn([C@@H]3O[C@H](COP(=O)(O)OP(=O)(O)O)[C@@H](O)[C@H]3O)c2n1 [2-MeS-ADP] | 0.32 | 21 | – | specifically active
Nc1ncnc2c1ncn2[C@@H]1O[C@H](COP(=O)(O)OP(O)(O)=S)[C@@H](O)[C@H]1O [ADPβS] | 8 | 43 | – | specifically active
